# System: PDC 899932-113-R3-J6 complex spheroid viability
# Assay: Anticancer human tumor 899932-113-R3-J6-PDC patient-derived melanoma cell line growth inhibition [RAS]
# Settings: for IC50: curve of first compound; for viability, T/C: stronger effect = lower value
# Excerpt: RAS pathway inhibitors in Combinations in Complex Spheroids
# A high-throughput screen of multi-cell type tumor spheroids was designed to identify active combinations of RAS pathway inhibitors and targeted small molecules. Complex spheroids include a stromal component modeled by human endothelial cells (HUVEC) and fibroblasts modeled by human mesenchymal stem cells (MSCs). The concentration ranges selected for each drug and investigational agent were based upon clinically achievable concentrations if the clinical Cmax of the agent was known.
# Compounds. The drugs and investigational agents: abemaciclib (NSC768073), cobimetinib (NSC768068), divarasib (GDC6063, NSC841802), docetaxel (NSC628503), GDC-1971 (RLY-1971, NSC841576), gemcitabine (NSC613327), inavolisib (NSC800729), ipatasertib (NSC767898), KB-0742 (NSC834161), MRTX-1133 (NSC836407), osimertinib (NSC779217), RMC-4630 (NSC839698), RMC-6236 (NSC851965), RMC-6291 (NSC852671), Ro-3306 (NSC812927), sapanisertib (NSC764658), SN-38 (NSC673596), staurosporine (NSC755774), SY5609 (NSC837396), and tovorafenib (DAY101, NSC766906), were obtained from the National Cancer Institute (NCI) Developmental Therapeutics Program Chemical Repository. The FDA-approved anticancer drug set is available from the NCI Developmental Therapeutics Program. […] The stock solutions were prepared in dimethyl sulfoxide (DMSO, Sigma-Aldrich, St. Louis, MO, cat. D2650) at 800-fold the tested concentration and stored at -70 degrees C prior to their use. All drugs and investigational agents were tested over a range starting from a high concentration at or near the clinical Cmax and decreasing in half-log increments. If the clinical Cmax for an agent had not been determined, the highest concentration tested was 10 microM.
# Cell Culture. All cells were maintained in an incubator at 37 degrees C and 5% CO2 with 95% humidity. The PDC lines were cultured according to standard operating procedures established by the NCI PDMR. All PDCs were thawed and cultured in Matrigel-coated flasks prepared with a working solution of 1X Ham's F-12 nutrient mix, without supplementation (Invitrogen, Waltham, MA, cat. 11765054), 100 U/mL penicillin-streptomycin (Invitrogen, cat. 15140122), and 2.5% Matrigel (Corning Inc., Corning, NY, cat. 354248) for the first three passages. The 362531-283-R-J2-PDC and 782815-120-R-J1-PDC lines were cultured in 6C/Colon 1B media, which includes advanced DMEM/F-12 (Thermo Fisher Scientific, cat. 12634028), 10 mM HEPES (Thermo Fisher Scientific, cat. 15630080), 1X GlutaMAX supplement (Thermo Fisher Scientific, cat. 35050061), 0.1 mg/mL primocin (InvivoGen, San Diego, CA, cat. ant-pm-2), 10% defined fetal bovine serum, heat inactivated (HyClone Laboratories Inc., Logan, UT, cat. SH30070.03HI), 50% L-WRN conditioned media (ATCC, cat. CRL-3276), 1.25 mM N-Acetyl-L-cysteine (Sigma-Aldrich, cat. A9165), 10 mM nicotinamide (Sigma-Aldrich, cat. N0636), 1X B-27 supplement (Thermo Fisher Scientific, cat. 17504044), 1X N-2 supplement (Thermo Fisher Scientific, cat. 17502048), 50 ng/mL human EGF (Thermo Fisher Scientific, cat. PHG0311), and 10 microM Y-27632 dihydrochloride (Tocris Bioscience, cat. 1254). The K12877-001-R-J1-PDC line was cultured in 6I media, which includes all 6C/Colon 1B media plus 10 ng/mL human FGF-10 (PeproTech, cat. 100-26), 1 ng/mL human FGF-2 (PeproTech, cat. 100-18B), 1 µM prostaglandin E2 (Tocris Bioscience, cat. 2296), […] hydrocortisone (Sigma-Aldrich, cat. H4001), and […] bovine insulin (Sigma-Aldrich, cat. I6634). The K86415-001-R-J1-PDC line was cultured in 6D media, which includes all 6C/Colon 1B media components minus the L-WRN conditioned media. The 485176-168-R4-J1-PDC was cultured in PANC media, which includes all 6C/Colon 1B media plus 100 ng/mL human FGF-10 (PeproTech, cat. 100-26), 500 nM SB-431542 (Selleckchem, cat. S1067), and 10 nM gastrin (Tocris Bioscience, cat. 3006). […]
# 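For viability, T/C in this document: spheroids exposed to agents for seven days before readout; 100% = DMSO vehicle control wells.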
structure (smiles),measurement,setting,value
CC(=O)OC12COC1CC(O)C1(C)C(=O)C(O)C3=C(C)C(OC(=O)C(O)C(NC(=O)OC(C)(C)C)c4ccccc4)CC(O)(C(OC(=O)c4ccccc4)C21)C3(C)C (configuration not stated) + C=CC(=O)N1CCN(c2nc(OCC3CCCN3C)nc3c(F)c(-c4nc(N)cc(C)c4C(F)(F)F)c(Cl)cc23)C(C)C1,IC50,second compound 0.00316 µM,< 31.6 nM
same,IC50,second compound 0.01 µM,< 31.6 nM
same,IC50,second compound 0.0316 µM,< 31.6 nM
same,IC50,second compound 0.1 µM,< 31.6 nM
same,IC50,second compound 0.316 µM,< 31.6 nM
same,IC50,second compound 1 µM,< 31.6 nM
same,"viability, T/C","second compound 0.00316 µM, first compound 0.0316 µM",30.5%
same,"viability, T/C","second compound 0.00316 µM, first compound 0.1 µM",30.6%
same,"viability, T/C","second compound 0.00316 µM, first compound 0.316 µM",40%
same,"viability, T/C","second compound 0.00316 µM, first compound 1 µM",46.4%
same,"viability, T/C","second compound 0.00316 µM, first compound 3.16 µM",69.7%
same,"viability, T/C","second compound 0.00316 µM, first compound 10 µM",82.1%
same,"viability, T/C","second compound 0.01 µM, first compound 0.0316 µM",31.2%
same,"viability, T/C","second compound 0.01 µM, first compound 0.1 µM",36.1%
same,"viability, T/C","second compound 0.01 µM, first compound 0.316 µM",39.6%
same,"viability, T/C","second compound 0.01 µM, first compound 1 µM",57.3%
same,"viability, T/C","second compound 0.01 µM, first compound 3.16 µM",49.5%
same,"viability, T/C","second compound 0.01 µM, first compound 10 µM",76.6%
same,"viability, T/C","second compound 0.0316 µM, first compound 0.0316 µM",31%
same,"viability, T/C","second compound 0.0316 µM, first compound 0.1 µM",43.6%
same,"viability, T/C","second compound 0.0316 µM, first compound 0.316 µM",42.2%
same,"viability, T/C","second compound 0.0316 µM, first compound 1 µM",48.4%
same,"viability, T/C","second compound 0.0316 µM, first compound 3.16 µM",68.3%
same,"viability, T/C","second compound 0.0316 µM, first compound 10 µM",60.8%
same,"viability, T/C","second compound 0.1 µM, first compound 0.0316 µM",34.5%
same,"viability, T/C","second compound 0.1 µM, first compound 0.1 µM",37.2%
same,"viability, T/C","second compound 0.1 µM, first compound 0.316 µM",34.2%
same,"viability, T/C","second compound 0.1 µM, first compound 1 µM",50.4%
same,"viability, T/C","second compound 0.1 µM, first compound 3.16 µM",73.6%
same,"viability, T/C","second compound 0.1 µM, first compound 10 µM",74%
same,"viability, T/C","second compound 0.316 µM, first compound 0.0316 µM",27.6%
same,"viability, T/C","second compound 0.316 µM, first compound 0.1 µM",34.3%
same,"viability, T/C","second compound 0.316 µM, first compound 0.316 µM",44.8%
same,"viability, T/C","second compound 0.316 µM, first compound 1 µM",47.1%
same,"viability, T/C","second compound 0.316 µM, first compound 3.16 µM",75.1%
same,"viability, T/C","second compound 0.316 µM, first compound 10 µM",79%
same,"viability, T/C","second compound 1 µM, first compound 0.0316 µM",31.5%
same,"viability, T/C","second compound 1 µM, first compound 0.1 µM",37.1%
same,"viability, T/C","second compound 1 µM, first compound 0.316 µM",38.8%
same,"viability, T/C","second compound 1 µM, first compound 1 µM",51%
same,"viability, T/C","second compound 1 µM, first compound 3.16 µM",68.5%
same,"viability, T/C","second compound 1 µM, first compound 10 µM",69.2%

# Source: PubChem BioAssay AID2060895 (Molecular Pharmacology Branch, DTP, NCI, 2025)
